Source: doi:10.1101/2024.08.19.608619, “Discovery of potent SARS-CoV-2 nsp3 macrodomain inhibitors uncovers lack of translation to cellular antiviral response” (bioRxiv, 2024)
pEC50: −log10 of the molar value. ≈ marks a conversion by molar mass, not a printed value. Where “and” joins values, the source holds several entries; their conditions need not be identical. Equal entries are not always repeated. Where two headings read alike, the source gives them in different places.

Experiments:
[1] = Hepatic microsomal stability, MLM; assay type: in vitro ADME; details: In vitro mouse liver microsomal stability; for perc_remaining_no_cofactor: no cofactor
[2] = In vitro kinetic solubility; details: In vitro kinetic solubility, ph 7.4
[3] = in vitro; details: human, hela-ace2 cells, 50.0
[4] = system: SARS-CoV-2, isolate USA-WA1/2020; test: microbe, parasite or virus in culture; assay type: cell-based; details: HeLa-ACE2 SARS-CoV-2 antiviral effect without P-gp inhibitor; for perc_max_measured: maximum measured response of dose series; for perc_min_measured: minimum measured response of dose series; for pEC50: read-out: ec50; for EC90: read-out: ec90
[5] = LogD; details: pH 7.4; In vitro LogD
[6] = Permeability Papp (AB) MDR1/MDCKII; details: for papp_a_to_b_mean / papp_b_to_a_mean / efflux_ratio / perc_recovery_a_to_b_mean / perc_recovery_b_to_a_mean: In vitro MDR1-MDCKII permeability; for papp_a_to_b_mean: A to B; for papp_b_to_a_mean: B to A; for perc_recovery_a_to_b_mean / perc_recovery_a_to_b_inhibitor_mean: recovery A to B; for perc_recovery_b_to_a_mean / perc_recovery_b_to_a_inhibitor_mean: recovery B to A; for perc_recovery_a_to_b_inhibitor_mean / perc_recovery_b_to_a_inhibitor_mean: MDR1-MDCKII
[7] = Hepatic microsomal stability, HLM; assay type: in vitro ADME, human; details: In vitro human liver microsomal stability; for perc_remaining_no_cofactor: no cofactor
[8] = system: HeLa-ACE2 cells; details: for perc_max_measured: highest measured response of the dose series; for perc_min_measured: lowest measured response of the dose series
[9] = protocol HeLa-ACE2 cytotoxicity

Row | Compound | clint [1] [µL/min/mg] | perc_remaining [1] [%] | t_half [1] [min] | perc_remaining_no_cofactor [1] [%] | solubility_mean [2] [µM] | CC50 at 24 h [3] [µM] | perc_max_measured [4] [%] | perc_min_measured [4] [%] | pEC50 [4] | EC90 [4] [µM] | logd [5] | perc_recovery_a_to_b_mean ([6]; no inhibitor) | clint [7] [µL/min/mg] | perc_remaining [7] [%] | t_half [7] [min] | perc_remaining_no_cofactor [7] [%] | CC50 ([8]; HeLa-ACE2 cytotoxicity) [µM] | cc10 ([8]; HeLa-ACE2 cytotoxicity) [µM] | perc_max_measured ([8]; HeLa-ACE2 cytotoxicity) [%] | perc_min_measured ([8]; HeLa-ACE2 cytotoxicity) [%] | further results
1 | CC(C)[C@H](Nc1ncnc2[nH]c(-c3cnn(C)c3C#N)cc12)c1ccc2c(c1)S(=O)(=O)CCC2 (single isomer, unassigned) [ASAP-0011144] | 311.0 | 1.0 | 5.4 | 90.0 | 22 (≈ 10.5 µg/mL) | > 20 | 129.006 | 5.734 | 5.21 | 7.19 | 3.3 | 95.4% and 83.3% | 935.0 | 0.0 | 1.8 | 101.0 | > 20 | > 20.0 | 100.779 | 87.504 | papp_a_to_b_mean ([6]; mean): 4.33 ×10⁻⁶ cm/s; papp_a_to_b_mean ([6]; no inhibitor): 0.109 ×10⁻⁶ cm/s and 0.101 ×10⁻⁶ cm/s; papp_b_to_a_mean ([6]; no inhibitor): 6.0 ×10⁻⁶ cm/s and 7.2 ×10⁻⁶ cm/s; efflux_ratio ([6]; no inhibitor): 54.9 and 71.8; perc_recovery_a_to_b_mean ([6]; mean): 71.4%; perc_recovery_b_to_a_mean ([6]; no inhibitor): 82.4% and 102.0%; perc_recovery_a_to_b_inhibitor_mean ([6]; with inhibitor Cyclosporin A): 78.3%; perc_recovery_a_to_b_inhibitor_mean ([6]; with inhibitor Verapamil): 84.6%; perc_recovery_b_to_a_inhibitor_mean ([6]; with inhibitor Cyclosporin A): 76.3%; perc_recovery_b_to_a_inhibitor_mean ([6]; with inhibitor Verapamil): 95.9%
2 | CNCc1cc(-c2cc3c(N[C@H](c4ccc5c(c4)S(=O)(=O)CCC5)C(C)C)ncnc3[nH]2)co1 (single isomer, unassigned) [ASAP-0011169] | 40.0 | 51.0 | 41.8 | 96.0 | 358 (≈ 172 µg/mL) | > 20 | 94.818 | 27.713 | 4.96 | > 20 | 2.1 | – | 67.0 | 33.0 | 25.1 | 98.0 | > 20 | > 20.0 | 96.832 | 86.562 | papp_a_to_b_mean ([6]; mean): 0.483 ×10⁻⁶ cm/s; perc_recovery_a_to_b_mean ([6]; mean): 63.8%
3 | CC(C)[C@H](Nc1ncnc2[nH]c(-c3cnn(C)c3C#N)cc12)c1ccc2c(n1)NC(=O)CO2 (single isomer, unassigned) [ASAP-0011177] | 131.0 | 12.0 | 12.8 | 85.0 | 28 (≈ 12.4 µg/mL) | > 20 | 70.604 | 3.388 | 6.07 | > 20 | 3.7 | 69.4% | 137.0 | 10.0 | 12.2 | 92.0 | > 20 | > 20.0 | 109.886 | 55.576 | papp_a_to_b_mean ([6]; mean): 9.35 ×10⁻⁶ cm/s; papp_a_to_b_mean ([6]; no inhibitor): 0.0964 ×10⁻⁶ cm/s; papp_b_to_a_mean ([6]; no inhibitor): 6.5 ×10⁻⁶ cm/s; efflux_ratio ([6]; no inhibitor): 67.2; perc_recovery_a_to_b_mean ([6]; mean): 80.2%; perc_recovery_b_to_a_mean ([6]; no inhibitor): 79.8%; perc_recovery_a_to_b_inhibitor_mean ([6]; with inhibitor Verapamil): 78.2%; perc_recovery_b_to_a_inhibitor_mean ([6]; with inhibitor Verapamil): 81.1%
4 | CC(C)[C@@H](Nc1ncnc2[nH]c(-c3cnn(C)c3C#N)cc12)c1ccc2c(n1)NC(=O)CO2 (single isomer, unassigned) [ASAP-0011180] | 189.0 | 5.0 | 8.8 | 92.0 | 28 (≈ 12.4 µg/mL) | > 20 | 122.922 | 8.802 | 5.61 | 5.57 | 3.7 | – | 51.0 | 43.0 | 32.6 | 98.0 | > 20 | > 20.0 | 104.887 | 81.763 | papp_a_to_b_mean ([6]; mean): 9.64 ×10⁻⁶ cm/s; perc_recovery_a_to_b_mean ([6]; mean): 84.8%
5 | CC(C)[C@H](Nc1ncnc2[nH]c(-c3cnn(C)c3)cc12)c1ccc2c(c1)S(=O)(=O)CCC2 (single isomer, unassigned) [ASAP-0012327] | 255.0 | 1.0 | 6.5 | 98.0 | 111 (≈ 50 µg/mL) | > 20 | 111.115 | 52.798 | < 4.70 | > 20 | 2.9 | 65.0% | 169.0 | 7.0 | 9.9 | 95.0 | > 20 | > 20.0 | 100.334 | 94.258 | papp_a_to_b_mean ([6]; no inhibitor): 1.18 ×10⁻⁶ cm/s
6 | CC(C)(C)[C@H](Nc1ncnc2[nH]c(-c3cnn(CC(N)=O)c3)cc12)c1ccc2c(c1)OCCO2 (single isomer, unassigned) [ASAP-0012330] | 44.0 | 48.0 | 38.3 | 105.0 | 89 (≈ 41.1 µg/mL) | > 20 | 108.484 | 91.129 | < 4.70 | > 20 | 3.0 | 67.4% | 153.0 | 9.0 | 10.9 | 100.0 | > 20 | > 20.0 | 98.779 | 88.572 | papp_a_to_b_mean ([6]; no inhibitor): 0.364 ×10⁻⁶ cm/s
7 | CNC(=O)c1cccc(-c2cc3c(N[C@H](c4ccc5c(c4)S(=O)(=O)CCC5)C(C)C)ncnc3[nH]2)c1 (single isomer, unassigned) [ASAP-0012338] | 197.0 | 4.0 | 8.5 | 106.0 | 13 (≈ 6.55 µg/mL) | > 20 | 112.086 | 84.591 | < 4.70 | > 20 | 3.8 | 61.5% | 746.0 | 0.0 | 2.2 | 99.0 | – | – | – | – | papp_a_to_b_mean ([6]; no inhibitor): 0.502 ×10⁻⁶ cm/s; CC50 [8, 9]: > 20 µM; cc10 [8, 9]: > 20.0 µM; perc_max_measured [8, 9]: 103.266%; perc_min_measured [8, 9]: 80.243%
8 | CNC(=O)c1cc2c(N[C@@H](c3ccc4c(c3)S(=O)(=O)CCC4)C(C)C)ncnc2[nH]1 (single isomer, unassigned) [ASAP-0012346] | 23.0 | 69.0 | 71.6 | 97.0 | 397 (≈ 170 µg/mL) | > 20 | 104.869 | 90.681 | < 4.70 | > 20 | 2.4 | 74.6% and 66.3% | 682.0 | 0.0 | 2.4 | 94.0 | – | – | – | – | papp_b_to_a_mean ([6]; no inhibitor): 0.72 ×10⁻⁶ cm/s; efflux_ratio ([6]; no inhibitor): 21.1; perc_recovery_b_to_a_mean ([6]; no inhibitor): 68.8%; perc_recovery_a_to_b_inhibitor_mean ([6]; with inhibitor Verapamil): 98.1%; perc_recovery_b_to_a_inhibitor_mean ([6]; with inhibitor Verapamil): 86.6%; CC50 [8, 9]: > 20 µM; cc10 [8, 9]: > 20.0 µM; perc_max_measured [8, 9]: 108.34%; perc_min_measured [8, 9]: 94.319%
9 | CC(C)[C@H](Nc1ncnc2[nH]c(-c3cnn(C)c3C#N)cc12)c1ccc2c(c1)NC(=O)CO2 (single isomer, unassigned) [ASAP-0013255] | 81.0 | 27.0 | 20.7 | 96.0 | 26 (≈ 11.5 µg/mL) | > 20 | 72.17 | 6.652 | 5.87 | > 20 | 4.4 | – | 115.0 | 16.0 | 14.6 | 101.0 | > 20 | > 20.0 | 92.424 | 38.485 | papp_a_to_b_mean ([6]; mean): 1.22 ×10⁻⁶ cm/s; perc_recovery_a_to_b_mean ([6]; mean): 51.1%
